Results from patent US9670150B2, “(2-ureidoacetamido)alkyl derivatives as formyl peptide receptor 2 modulators” (Allergan, Inc., priority 2012, dated 2017).
Like-named read-outs stand apart in the source and are kept apart here.

Target: T1, FPR2 (Homo sapiens, UniProt P25090)
T1 construct: expressed in transfected cells; host or cells: CHO-Ga16 cells stably expressing FPR2
T1 sequence (P25090 1-351): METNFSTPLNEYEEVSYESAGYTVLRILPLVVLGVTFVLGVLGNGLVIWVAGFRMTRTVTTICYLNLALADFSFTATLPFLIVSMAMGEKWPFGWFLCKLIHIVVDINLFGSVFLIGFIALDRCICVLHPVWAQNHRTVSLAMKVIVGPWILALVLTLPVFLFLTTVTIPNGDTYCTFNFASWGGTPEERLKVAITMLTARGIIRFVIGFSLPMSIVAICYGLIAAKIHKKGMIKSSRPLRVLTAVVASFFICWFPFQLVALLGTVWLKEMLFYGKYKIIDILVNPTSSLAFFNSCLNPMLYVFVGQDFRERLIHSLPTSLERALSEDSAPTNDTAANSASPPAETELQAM
Assay: compound-induced calcium activity on FLIPR Tetra in CHO-Ga16 cells stably expressing FPR2
Type: cell-based
Conditions: for Emax: efficacy value given as a fraction, read-out: FPR2 Ga16-CHO (0.% eff) efficacy
Description: CHO-Ga16 cells stably expressing FPR2 were cultured in (F12, 10% FBS, 1% PSA, 400 μg/ml geneticin and 50 μg/ml hygromycin) and HEK-Gqi5 cells stable expressing FPR2 were cultured in (DMEM high glucose, 10% FBS, 1% PSA, 400 μg/ml geneticin and 50 μg/ml hygromycin). In general, the day before the experiment, 18,000 cells/well were placed in a 384-well clear bottom poly-d-lysine coated plate. The following day the screening compound-induced calcium activity was assayed on the FLIPR^Tetra. The drug plates were prepared in 384-well microplates using the EP3 and the MuItiPROBE robotic liquid handling systems. Compounds were tested at concentrations ranging from 0.61 to 10,000 nM. Results are expressed as EC50 (nM) and efficacy values.

[1] = CHO-Ga16 cells stably expressing FPR2, calcium activity, FLIPR Tetra, concentrations 0.61 to 10,000 nM
[2] = CHO-Ga16 cells stably expressing FPR2

| Compound | EC50 [1] | Emax [2] | EC50 |
| --- | --- | --- | --- |
| CCOP(=O)(CNC(=O)[C@H](CC(C)C)NC(=O)Nc1ccc(Br)cc1)OCC [Compound 1, Diethyl({[(2S)-2-({[(4-bromophenyl)amino]carbonyl}amino)-4-methylpentanoyl]amino}methyl)phosphonate] | 0.59 nM | 100% |  |
| CC(C)C[C@H](NC(=O)Nc1ccc(Br)cc1)C(=O)NCc1nnn[nH]1 [Compound 2, (2S)-2-({[(4-Bromophenyl)amino]carbonyl}amino)-4-methyl-N-(1H-tetrazol-5-ylmethyl)pentanamide] | 2.3 nM | 81% |  |
| CC(C)C[C@H](NC(=O)Nc1ccc(Br)cc1)C(=O)NCCc1nnn[nH]1 [Compound 3, (2S)-2-({[(4-Bromophenyl)amino]carbonyl}amino)-4-methyl-N-[2-(1H-tetrazol-5-yl)ethyl]pentanamide] | 47.9 nM | 100% |  |
| CC(C)C[C@H](NC(=O)Nc1ccc(Br)cc1)C(=O)NCc1cc(O)no1 [Compound 4, (2S)-2-({[(4-Bromophenyl)amino]carbonyl}amino)-N-[(3-hydroxyisoxazol-5-yl)methyl]-4-methylpentanamide] | 12 nM | 100% |  |
| CCOP(=O)(CNC(=O)[C@@H](NC(=O)Nc1ccc(Br)cc1)[C@@H](C)CC)OCC [Compound 5, Diethyl ({[(2S,3S)-2-({[(4-bromophenyl)amino]carbonyl}amino)-3-methylpentanoyl]amino}methyl)phosphonate] | 2.4 nM | 100% |  |
| CCC[C@H](NC(=O)Nc1ccc(Br)cc1)C(=O)NCP(=O)(OCC)OCC [Compound 6, Diethyl ({[(2S)-2-({[(4-bromophenyl)amino]carbonyl}amino)pentanoyl]amino}methyl)phosphonate] | 0.29 nM | 94% |  |
| CCOP(=O)(CNC(=O)[C@H](Cc1ccccc1)NC(=O)Nc1ccc(Br)cc1)OCC [Compound 7, Diethyl ({[(2S)-2-({[(4-bromophenyl)amino]carbonyl}amino)-3-phenylpropanoyl]amino}methyl)phosphonate] | 20 nM | 98% |  |
| CCOP(=O)(CCNC(=O)[C@H](CC(C)C)NC(=O)Nc1ccc(Br)cc1)OCC [Compound 8, Diethyl (2-{[(2S)-2-({[(4-bromophenyl)amino]carbonyl}amino)-4-methylpentanoyl]amino}ethyl)phosphonate] | 1.8 nM | 100% |  |
| CCC[C@H](NC(=O)Nc1ccc(Br)cc1)C(=O)NCP(=O)(OC(C)C)OC(C)C [Compound 9, Diisopropyl ({[(2S)-2-({[(4-bromophenyl)amino]carbonyl}amino)pentanoyl]amino}methyl)phosphonate] | 0.8 nM | 94% |  |
| CC(C)C[C@H](NC(=O)Nc1ccc(Br)cc1)C(=O)NCP(=O)(OC(C)C)OC(C)C [Compound 10, Diisopropyl ({[2-({[(4-bromophenyl)amino]carbonyl}amino)-4-methylpentanoyl]amino}methyl)phosphonate] | 4 nM | 100% |  |
| CCOP(=O)(CNC(=O)[C@H](CC(C)C)NC(=O)Nc1ccc(C(F)(F)F)cc1)OCC [Compound 11, Diethyl [({(2S)-4-methyl-2-[({[4-(trifluoromethyl)phenyl]amino}carbonyl)amino]pentanoyl}amino)methyl]phosphonate] | 8 nM | 100% |  |
| CC(C)C[C@H](NC(=O)Nc1ccc(C(F)(F)F)cc1)C(=O)NCc1nnn[nH]1 [Compound 12, (2S)-4-methyl-N-(1H-tetrazol-5-ylmethyl)-2-[({[4-(trifluoromethyl)phenyl]amino}carbonyl)amino]pentanamide] | 4 nM | 91% |  |
| CC(C)C[C@H](NC(=O)Nc1ccc(C(F)(F)F)cc1)C(=O)NCS(=O)(=O)O [Compound 13, ({(2S)-4-methyl-2-[({[4-(trifluoromethyl)phenyl]amino}carbonyl)amino]pentanoyl}amino)methanesulfonic acid] | 1.6 nM | 100% |  |
| CCOP(=O)(CNC(=O)[C@H](CC(C)C)NC(=O)Nc1ccc(SC)cc1)OCC [Compound 14, Diethyl [({(2S)-4-methyl-2-[({[4-(methylthio)phenyl]amino}carbonyl)amino]pentanoyl}amino)methyl]phosphonate] | 2.1 nM | 90% |  |
| CCOP(=O)(O)CNC(=O)[C@H](CC(C)C)NC(=O)Nc1ccc(Br)cc1 [Compound 15, Ethyl hydrogen({[(2S)-2-({[(4-bromophenyl)amino]carbonyl}amino)-4-methylpentanoyl]amino}methyl)phosphonate] |  | 88% | 0.95 nM |
| CCOP(=O)(O)CNC(=O)[C@@H](NC(=O)Nc1ccc(Br)cc1)[C@@H](C)CC [Compound 16, Ethyl hydrogen ({[(2S,3S)-2-({[(4-bromophenyl)amino]carbonyl}amino)-3-methylpentanoyl]amino}methyl)phosphonate] | 3.2 nM | 88% |  |
| CCC[C@H](NC(=O)Nc1ccc(Br)cc1)C(=O)NCP(=O)(O)OCC [Compound 17, Ethyl hydrogen ({[(2S)-2-({[(4-bromophenyl)amino]carbonyl}amino)pentanoyl]amino}methyl)phosphonate] |  | 94% | 1 nM |
| CCOP(=O)(O)CNC(=O)[C@H](Cc1ccccc1)NC(=O)Nc1ccc(Br)cc1 [Compound 18, Ethyl hydrogen ({[(2S)-2-({[(4-bromophenyl)amino]carbonyl}amino)-3-phenylpropanoyl]amino}methyl)phosphonate] |  | 110% | 16 nM |
| CCCC(NC(=O)Nc1ccc(Br)cc1)C(=O)NCP(=O)(O)OC(C)C (centres unmarked) [Compound 19, Iso-propyl hydrogen ({[2-({[(4-bromophenyl)amino]carbonyl}amino)pentanoyl]amino}methyl)phosphonate] | 1.87 nM | 89% |  |
| CCOP(=O)(O)CNC(=O)[C@H](CC(C)C)NC(=O)Nc1ccc(C(F)(F)F)cc1 [Compound 20, Ethyl hydrogen [({(2S)-4-methyl-2-[({[4-(trifluoromethyl)phenyl]amino}carbonyl)amino]pentanoyl}amino)methyl]phosphonate] | 2 nM | 95% |  |
| CCOP(=O)(O)CNC(=O)[C@H](CC(C)C)NC(=O)Nc1ccc(S(C)(=O)=O)cc1 [Compound 21, ethyl hydrogen [({(2S)-4-methyl-2-[({[4-(methylsulfonyl)phenyl]amino}carbonyl)amino]pentanoyl}amino)methyl]phosphonate] | 133 nM | 99% |  |
| CCC[C@H](NC(=O)Nc1ccc(Br)cc1)C(=O)NCP(=O)(O)O [Compound 22, ({[(2S)-2-({[(4-bromophenyl)amino]carbonyl}amino)pentanoyl]amino}methyl)phosphonic acid] | 32 nM | 94% |  |
| CC(C)C[C@H](NC(=O)Nc1ccc(C(F)(F)F)cc1)C(=O)NCP(=O)(O)O [Compound 23, [({(2S)-4-methyl-2-[({[4-(trifluoromethyl)phenyl]amino}carbonyl)amino]pentanoyl}amino)methyl]phosphonic acid] | 64 nM | 102% |  |
| CCOP(=O)(CNC(=O)[C@H](CC(C)C)NC(=O)Nc1ccc(S(C)(=O)=O)cc1)OCC [Compound 24, Diethyl[({(2S)-4-methyl-2-[({[4-(methylsulfonyl)phenyl]amino}carbonyl)amino]pentanoyl}amino)methyl]phosphonate] | 45 nM | 112% |  |
| CC(C)C[C@H](NC(=O)Nc1ccc(Br)cc1)C(=O)NCS(=O)(=O)O [{[(2S)-2-{[(4-Bromophenyl)carbamoyl]amino}-4-methylpentanoyl]amino}methanesulfonic acid] | 2.3 nM | 91% |  |
